Patent US20240092761A1, “QUINAZOLINE COMPOUNDS AND METHODS OF USE” (IAMBIC THERAPEUTICS, INC., priority 2022, published 2024)

Assays:
CDK6/Cyclin D3 = CDK6/Cyclin D3 (Homo sapiens (Human), UniProt Q00534); assay: CDK6/Cyclin D3 ADP-Glo Kinase Assay; assay type: biochemical; details: 100 uM ATP, read-out: CDK6/ CyclinD3 IC50
How it was run: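 Luminescent ADP-Glo read-out of ADP produced, used to fit IC50 (4-parameter equation on fractional velocity against inhibitor concentration). Kinase reaction: enzyme and inhibitor together 30 min, then ATP-containing substrate added for 90 min, all at room temperature.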

[1] = biological target: CDK2/Cyclin E1 full length (Homo sapiens (Human), UniProt P24941); assay: CDK2/Cyclin E1 Full Length ADP-Glo Kinase Assay; assay type: biochemical; details: 20 uM ATP, read-out: CDK2/ CyclinE1 IC50
How it was run: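 ADP-Glo luminescence read-out of ADP formed by 0.328 nM wild-type full-length CDK2/Cyclin E1, 90 min at room temperature with 0.75 uM substrate and 20 uM ATP (Km 64.78 uM), after 30 min enzyme–inhibitor pre-incubation; 50 mM HEPES pH 7.5, 2% DMSO. Four-parameter IC50 fit.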

CDK1/Cyclin B1 = CDK1/Cyclin B1 (Homo sapiens (Human), UniProt P06493); assay: CDK1/Cyclin B1 ADP-Glo Kinase Assay; assay type: biochemical; details: 80 uM ATP
How it was run: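 Luminescent ADP-Glo detection of ADP produced over 90 min at room temperature. Enzyme complex 4.917 nM, pre-exposed 30 min to inhibitor; ATP 80 µM (near Km 78.6 µM), substrate 0.75 µM, HEPES pH 7.5, 2% DMSO. Fractional velocity fitted to 4-parameter IC50 equation.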

CDK4/Cyclin D1 = CDK4/Cyclin D1 (Homo sapiens (Human), UniProt P11802); assay: CDK4/Cyclin D1 Mobility Shift Assay (MSA); assay type: biochemical; details: 0.2 mM ATP, read-out: CDK4/ CyclinD1 MSA IC50
Source text: CDK4/Cyclin D1 Mobility Shift Assay (MSA)
The purpose CDK4/Cyclin D1 assay is to evaluate the inhibition (% inhibition and IC50 values) in the presence of small molecule inhibitors by using a fluorescence based microfluidic mobility shift assay. CDK4/Cyclin D1 catalyzes the production of ADP from ATP that accompanies the phosphoryl transfer to the substrate peptide 5-FAM-Dyrktide (5-FAM-RRRFRPASPLRGPPK) (Perkin Elmer Peptide 34). The mobility shift assay (MSA) electrophoretically separates the fluorescently labelled peptides (substrate and phosphorylated product) following the kinase reaction. Both substrate and product are measured, and the ratio of these values is used to generate % conversion of substrate to product by the LabChip EZ Reader. Typical reaction solutions contained 2% DMSO (+/−inhibitor), 10 mM MgCl2, 1 mM EGTA, 0.05% BSA, 2 mM DTT, 0.2 mM ATP, 0.01% Brig-35, 1.5 uM 5-FAM-Dyrktide, 2.5 nM CDK4/Cyclin D1 in 50 mM HEPES buffer at pH 7.5. The reaction was initiated with the addition of substrate solution, following a 30-minute pre-incubation of enzyme and inhibitor at 22° C. in the reaction mix. The reaction was stopped after 180 minutes by the addition of 75 uL of 500 mM EDTA and measured on a Perkin Elmer EZ reader instrument. IC50 determinations were made from a plot of the fractional velocity as a function of inhibitor concentration fit to the 4 parameters IC50 equation.

MCF-7 cells = assay: Cell Growth Inhibition, MCF-7 (CellTiterGlo, 6 days); assay type: cell-based; details: Homo sapiens, MCF7, 144 h; MCF-7, 6-day treatment, CellTiterGlo 2.0
How it was run: (§1)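 Compounds were run in half-log series, usually 10–10,000 nM, with 500 cells/well of OVCAR-3 or MCF-7 in RPMI plus 10% FBS. After a 6-day culture at 37 °C, viability was read by CellTiterGlo luminescence. Inhibition relative to control was fitted (four-parameter, variable slope) for IC50.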

OVCAR-3 cells = assay: Cell Growth Inhibition, OVCAR-3 (CellTiterGlo, 6 days); assay type: cell-based; details: Homo sapiens, 144 h; OVCAR-3, 6-day treatment, CellTiterGlo 2.0
How it was run: as §1

CDK6/Cyclin D3, sequence (Q00534 whole entry): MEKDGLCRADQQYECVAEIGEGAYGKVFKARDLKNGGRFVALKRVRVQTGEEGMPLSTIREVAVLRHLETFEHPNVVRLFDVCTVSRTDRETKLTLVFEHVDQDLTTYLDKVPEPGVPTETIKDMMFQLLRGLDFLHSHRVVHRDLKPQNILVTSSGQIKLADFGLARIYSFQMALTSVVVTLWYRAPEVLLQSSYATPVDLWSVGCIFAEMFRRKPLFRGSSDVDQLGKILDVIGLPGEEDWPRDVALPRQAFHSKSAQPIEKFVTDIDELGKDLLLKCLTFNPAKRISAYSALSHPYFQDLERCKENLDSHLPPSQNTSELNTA
CDK6/Cyclin D3, sequence (P30281 whole entry partner): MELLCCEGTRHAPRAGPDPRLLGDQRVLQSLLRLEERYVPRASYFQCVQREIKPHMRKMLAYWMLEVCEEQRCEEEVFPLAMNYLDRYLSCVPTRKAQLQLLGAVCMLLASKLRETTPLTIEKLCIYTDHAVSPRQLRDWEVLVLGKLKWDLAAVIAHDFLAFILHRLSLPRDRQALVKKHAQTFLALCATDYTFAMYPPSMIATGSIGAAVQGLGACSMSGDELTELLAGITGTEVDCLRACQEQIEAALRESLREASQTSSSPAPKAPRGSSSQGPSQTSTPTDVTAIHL
CDK1/Cyclin B1, sequence (P06493 whole entry): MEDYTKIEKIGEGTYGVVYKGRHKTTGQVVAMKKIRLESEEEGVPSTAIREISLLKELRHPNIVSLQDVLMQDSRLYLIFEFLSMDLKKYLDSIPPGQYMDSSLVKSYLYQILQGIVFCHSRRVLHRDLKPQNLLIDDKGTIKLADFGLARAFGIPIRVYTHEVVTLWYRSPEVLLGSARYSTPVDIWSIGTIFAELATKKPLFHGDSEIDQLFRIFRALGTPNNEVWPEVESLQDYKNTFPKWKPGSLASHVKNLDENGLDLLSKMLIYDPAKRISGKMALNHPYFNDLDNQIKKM
CDK1/Cyclin B1, sequence (P14635 whole entry partner): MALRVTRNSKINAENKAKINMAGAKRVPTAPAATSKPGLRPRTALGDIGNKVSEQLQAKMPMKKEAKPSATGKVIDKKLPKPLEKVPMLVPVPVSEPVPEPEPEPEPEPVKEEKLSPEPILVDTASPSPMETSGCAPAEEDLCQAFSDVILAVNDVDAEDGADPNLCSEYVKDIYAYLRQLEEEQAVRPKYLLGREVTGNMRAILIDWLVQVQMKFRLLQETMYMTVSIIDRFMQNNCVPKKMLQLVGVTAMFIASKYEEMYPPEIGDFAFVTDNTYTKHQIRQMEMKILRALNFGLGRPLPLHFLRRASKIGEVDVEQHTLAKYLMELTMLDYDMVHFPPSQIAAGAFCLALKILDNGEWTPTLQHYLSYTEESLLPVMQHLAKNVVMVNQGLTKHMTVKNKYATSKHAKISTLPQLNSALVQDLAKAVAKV
CDK4/Cyclin D1, sequence (P11802 whole entry): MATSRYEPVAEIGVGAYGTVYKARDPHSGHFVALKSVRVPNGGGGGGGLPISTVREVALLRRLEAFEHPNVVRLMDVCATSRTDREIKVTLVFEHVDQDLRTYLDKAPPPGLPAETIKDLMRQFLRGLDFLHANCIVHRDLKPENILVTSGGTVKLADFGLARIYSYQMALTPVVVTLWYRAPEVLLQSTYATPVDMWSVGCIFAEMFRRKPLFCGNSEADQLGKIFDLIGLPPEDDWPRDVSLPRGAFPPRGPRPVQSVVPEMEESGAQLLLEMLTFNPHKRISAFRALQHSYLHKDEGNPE
CDK4/Cyclin D1, sequence (P24385 whole entry partner): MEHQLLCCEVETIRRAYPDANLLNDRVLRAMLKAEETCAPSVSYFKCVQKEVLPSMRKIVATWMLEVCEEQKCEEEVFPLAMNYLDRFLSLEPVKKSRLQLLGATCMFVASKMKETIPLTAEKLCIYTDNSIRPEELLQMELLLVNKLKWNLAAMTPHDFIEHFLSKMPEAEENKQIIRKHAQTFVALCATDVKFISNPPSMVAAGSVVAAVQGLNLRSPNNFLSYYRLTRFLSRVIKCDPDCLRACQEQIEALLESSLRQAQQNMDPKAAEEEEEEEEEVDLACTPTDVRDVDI

**Q.** What does the source list for CC(=O)N1CCC2(CCN(c3cccc4cnc(Nc5ccc(N6CC7(C6)CC(F)(F)C7)cn5)nc34)C2)C1 (stereo not drawn) [Example 47, 1-(7-(2-((5-(6,6-difluoro-2-azaspiro[3.3]heptan-2-yl)pyridin-2-yl)amino)quinazolin-8-yl)-2,7-diazaspiro[4.4]nonan-2-yl)ethan-1-one]?
**A.** IC50 (CDK6/Cyclin D3): 200 to 500 nM; IC50 [1]: > 2000 nM; IC50 (CDK1/Cyclin B1): > 2000 nM; IC50 (CDK4/Cyclin D1): 200 to 500 nM; IC50 (MCF-7 cells): > 2000 nM; IC50 (OVCAR-3 cells): > 2000 nM

**Q.** What does the source list for COCCN1CC2(CCN(c3cccc4cnc(Nc5ccc(N6CC7(COC7)C6)cn5)nc34)C2)C1 [Example 43, N-(5-(2-oxa-6-azaspiro[3.3]heptan-6-yl)pyridin-2-yl)-8-(2-(2-methoxyethyl)-2,6-diazaspiro[3.4]octan-6-yl)quinazolin-2-amine]?
**A.** IC50 (CDK6/Cyclin D3): 500 to 2000 nM; IC50 [1]: > 2000 nM; IC50 (CDK1/Cyclin B1): > 2000 nM; IC50 (CDK4/Cyclin D1): 200 to 500 nM; IC50 (MCF-7 cells): 500 to 2000 nM; IC50 (OVCAR-3 cells): > 2000 nM

**Q.** For CC(=O)N1CCC2(CCN(c3cc(C(F)F)cc4cnc(Nc5cnn(C(C)C)c5)nc34)C2)C1 (stereo not drawn) [Example 52, 1-(7-(6-(difluoromethyl)-2-((1-isopropyl-1H-pyrazol-4-yl)amino)quinazolin-8-yl)-2,7-diazaspiro[4.4]nonan-2-yl)ethan-1-one], which IC50 (CDK6/Cyclin D3) is on record?
**A.** The IC50 was 500 to 2000 nM.

**Q.** And the IC50 [1]?
**A.** The IC50 was 500 to 2000 nM.

**Q.** What about the IC50 (CDK1/Cyclin B1) of the same molecule?
**A.** Its IC50 is 500 to 2000 nM.

**Q.** And the IC50 (CDK4/Cyclin D1)?
**A.** Its IC50 is < 200 nM.

**Q.** And the IC50 (MCF-7 cells)?
**A.** Its IC50 is 200 to 500 nM.

**Q.** What about the IC50 (OVCAR-3 cells) of the same molecule?
**A.** The IC50 was 500 to 2000 nM.

**Q.** What does the source list for CN1CC2(CCN(c3cccc4cnc(Nc5ccc(N6CC7(COC7)C6)cn5)nc34)C2)C1 [Example 42, N-(5-(2-oxa-6-azaspiro[3.3]heptan-6-yl)pyridin-2-yl)-8-(2-methyl-2,6-diazaspiro[3.4]octan-6-yl)quinazolin-2-amine]?
**A.** IC50 (CDK6/Cyclin D3): 200 to 500 nM; IC50 [1]: > 2000 nM; IC50 (CDK1/Cyclin B1): > 2000 nM; IC50 (CDK4/Cyclin D1): < 200 nM; IC50 (MCF-7 cells): 200 to 500 nM; IC50 (OVCAR-3 cells): > 2000 nM

**Q.** CC(=O)N1CCC2(CCN(c3cccc4cnc(NC5CCN(S(C)(=O)=O)CC5)nc34)C2)C1 (stereo not drawn) [Example 6, 1-(7-(2-((1-(methylsulfonyl)piperidin-4-yl)amino)quinazolin-8-yl)-2,7-diazaspiro[4.4]nonan-2-yl)ethan-1-one] was tested. Which IC50 (CDK6/Cyclin D3) did it give?
**A.** Its IC50 is < 200 nM.

**Q.** And the IC50 [1]?
**A.** Its IC50 is < 200 nM.

**Q.** And the IC50 (CDK1/Cyclin B1)?
**A.** The IC50 was > 2000 nM.

**Q.** What about the IC50 (CDK4/Cyclin D1) of the same molecule?
**A.** Its IC50 is < 200 nM.

**Q.** And the IC50 (MCF-7 cells)?
**A.** The IC50 was > 2000 nM.

**Q.** What about the IC50 (OVCAR-3 cells) of the same molecule?
**A.** Its IC50 is > 2000 nM.

**Q.** What does the source list for CS(=O)(=O)N1CCC(Nc2ncc3cccc(N4CCC(C#N)(C5CC5)C4)c3n2)CC1 (stereo not drawn) [Example 27, 3-cyclopropyl-1-(2-((1-(methylsulfonyl)piperidin-4-yl)amino)quinazolin-8-yl)pyrrolidine-3-carbonitrile]?
**A.** IC50 (CDK6/Cyclin D3): < 200 nM; IC50 [1]: < 200 nM; IC50 (CDK1/Cyclin B1): 500 to 2000 nM; IC50 (CDK4/Cyclin D1): < 200 nM; IC50 (MCF-7 cells): > 2000 nM; IC50 (OVCAR-3 cells): > 2000 nM

**Q.** Which results are given for CS(=O)(=O)N1CCC(Nc2ncc3cccc(N4CC5(CC(O)C5)C4)c3n2)CC1 [Example 18, 2-(2-((1-(methylsulfonyl)piperidin-4-yl)amino)quinazolin-8-yl)-2-azaspiro[3.3]heptan-6-ol]?
**A.** IC50 (CDK6/Cyclin D3): < 200 nM; IC50 [1]: < 200 nM; IC50 (CDK1/Cyclin B1): < 200 nM; IC50 (CDK4/Cyclin D1): < 200 nM; IC50 (MCF-7 cells): 500 to 2000 nM; IC50 (OVCAR-3 cells): 500 to 2000 nM

**Q.** Which IC50 (CDK6/Cyclin D3) does the source give for CS(=O)(=O)N1CCC(Nc2ncc3cccc(N4CC(CC#N)C4)c3n2)CC1 [Example 14, 2-(1-(2-((1-(methylsulfonyl)piperidin-4-yl)amino)quinazolin-8-yl)azetidin-3-yl)acetonitrile] here?
**A.** The IC50 was < 200 nM.

**Q.** And the IC50 [1]?
**A.** The IC50 was < 200 nM.

**Q.** And the IC50 (CDK1/Cyclin B1)?
**A.** The IC50 was 200 to 500 nM.

**Q.** And the IC50 (CDK4/Cyclin D1)?
**A.** Its IC50 is < 200 nM.

**Q.** What about the IC50 (MCF-7 cells) of the same molecule?
**A.** Its IC50 is > 2000 nM.

**Q.** And the IC50 (OVCAR-3 cells)?
**A.** Its IC50 is > 2000 nM.

**Q.** For CN1CC2(CCC1=O)CCN(c1cccc3cnc(NC4CCN(S(C)(=O)=O)CC4)nc13)C2 (stereo not drawn) [Example 55, 7-methyl-2-(2-((1-(methylsulfonyl)piperidin-4-yl)amino)quinazolin-8-yl)-2,7-diazaspiro[4.5]decan-8-one], which IC50 (CDK6/Cyclin D3) is on record?
**A.** The IC50 was 500 to 2000 nM.

**Q.** And the IC50 [1]?
**A.** The IC50 was 500 to 2000 nM.

**Q.** What about the IC50 (CDK1/Cyclin B1) of the same molecule?
**A.** The IC50 was > 2000 nM.

**Q.** And the IC50 (CDK4/Cyclin D1)?
**A.** The IC50 was 200 to 500 nM.

**Q.** What about the IC50 (MCF-7 cells) of the same molecule?
**A.** Its IC50 is > 2000 nM.

**Q.** And the IC50 (OVCAR-3 cells)?
**A.** Its IC50 is > 2000 nM.
